Where two headings read alike, the source gives them in different places.
How the values were obtained:
Assay type in all cases: cell-based
human AR (full-length) = target: T1, human AR (full-length) (Homo sapiens, UniProt P10275); test: U2OS-AR/MMTV luciferase reporter cell line (full-length receptor); settings: for Log EC50: agonist mode, 20 h, log10 of molar EC50, mean ± SEM; for Log EC50 / Log IC50: AR/MMTV; for Log IC50: antagonist mode, in the presence of 0.05 nM dihydrotestosterone, log10 of molar IC50, mean ± SEM
T1 construct: expression vectors encoding full-length steroid receptors: pcDNA3-hAR and pcDNA3-hGR; host or cells: U2OS
T1 sequence (P10275 1-920): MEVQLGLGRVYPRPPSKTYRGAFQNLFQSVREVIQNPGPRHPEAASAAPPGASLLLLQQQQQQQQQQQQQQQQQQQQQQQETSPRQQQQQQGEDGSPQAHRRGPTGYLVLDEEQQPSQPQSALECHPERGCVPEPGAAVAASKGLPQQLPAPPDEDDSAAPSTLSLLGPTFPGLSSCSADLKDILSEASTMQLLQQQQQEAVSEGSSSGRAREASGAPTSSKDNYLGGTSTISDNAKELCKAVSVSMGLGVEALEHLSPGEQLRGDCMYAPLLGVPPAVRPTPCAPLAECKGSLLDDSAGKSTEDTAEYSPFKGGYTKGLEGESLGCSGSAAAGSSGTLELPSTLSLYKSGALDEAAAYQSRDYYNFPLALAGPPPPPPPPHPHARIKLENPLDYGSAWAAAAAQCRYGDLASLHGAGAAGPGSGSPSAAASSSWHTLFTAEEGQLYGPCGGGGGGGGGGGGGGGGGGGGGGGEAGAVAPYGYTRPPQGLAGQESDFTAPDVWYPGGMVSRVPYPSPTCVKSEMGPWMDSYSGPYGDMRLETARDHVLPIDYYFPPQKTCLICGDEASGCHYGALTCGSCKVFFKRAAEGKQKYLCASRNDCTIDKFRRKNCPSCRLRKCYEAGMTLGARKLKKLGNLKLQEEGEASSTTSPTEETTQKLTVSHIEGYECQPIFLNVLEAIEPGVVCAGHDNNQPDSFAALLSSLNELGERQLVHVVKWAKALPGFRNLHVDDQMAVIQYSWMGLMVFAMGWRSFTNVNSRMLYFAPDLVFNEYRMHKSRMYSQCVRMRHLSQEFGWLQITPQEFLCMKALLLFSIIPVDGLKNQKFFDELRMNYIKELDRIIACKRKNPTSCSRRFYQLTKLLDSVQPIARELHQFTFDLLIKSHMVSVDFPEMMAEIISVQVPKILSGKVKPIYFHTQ

human GR (full-length) = target: T2, human GR (full-length) (Homo sapiens, UniProt P04150); test: U2OS-GR/MMTV luciferase reporter cell line (full-length receptor); settings: for Log EC50: agonist mode, 20 h, log10 of molar EC50, mean ± SEM; for Log EC50 / Log IC50: GR/MMTV; for Log IC50: antagonist mode, in the presence of 5 nM dexamethasone, log10 of molar IC50, mean ± SEM
T2 construct: expression vectors encoding full-length steroid receptors: pcDNA3-hAR and pcDNA3-hGR; host or cells: U2OS
T2 sequence (P04150 1-777): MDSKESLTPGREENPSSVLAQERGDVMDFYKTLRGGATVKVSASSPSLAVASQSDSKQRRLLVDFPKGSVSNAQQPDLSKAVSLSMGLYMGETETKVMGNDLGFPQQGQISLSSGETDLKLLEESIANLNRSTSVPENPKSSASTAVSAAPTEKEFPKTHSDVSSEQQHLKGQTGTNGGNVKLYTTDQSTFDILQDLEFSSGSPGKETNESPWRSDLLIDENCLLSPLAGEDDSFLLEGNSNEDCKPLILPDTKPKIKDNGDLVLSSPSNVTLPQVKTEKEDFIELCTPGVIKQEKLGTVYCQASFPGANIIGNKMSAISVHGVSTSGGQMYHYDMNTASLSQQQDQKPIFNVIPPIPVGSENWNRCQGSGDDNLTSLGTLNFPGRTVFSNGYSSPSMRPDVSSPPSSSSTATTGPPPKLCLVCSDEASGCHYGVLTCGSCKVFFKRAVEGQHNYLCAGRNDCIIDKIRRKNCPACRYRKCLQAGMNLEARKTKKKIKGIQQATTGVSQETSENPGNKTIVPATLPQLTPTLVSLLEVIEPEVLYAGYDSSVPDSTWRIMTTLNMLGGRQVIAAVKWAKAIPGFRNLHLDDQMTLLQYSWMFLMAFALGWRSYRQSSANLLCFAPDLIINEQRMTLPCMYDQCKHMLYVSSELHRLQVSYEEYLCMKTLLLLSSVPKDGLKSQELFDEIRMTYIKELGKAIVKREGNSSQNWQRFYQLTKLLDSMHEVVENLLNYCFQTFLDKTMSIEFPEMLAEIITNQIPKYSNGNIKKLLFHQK

[1] = target: T3, ERα^G420C-LBD fused to Gal4-DBD (Homo sapiens, UniProt P03372, G420C); test: U2OS-ERα^G420C-LBD/9xGal4UAS luciferase reporter cell line
T3 construct: expressed in transfected cells; host or cells: U2OS
T3 sequence (P03372 311-547 G420C limits assumed): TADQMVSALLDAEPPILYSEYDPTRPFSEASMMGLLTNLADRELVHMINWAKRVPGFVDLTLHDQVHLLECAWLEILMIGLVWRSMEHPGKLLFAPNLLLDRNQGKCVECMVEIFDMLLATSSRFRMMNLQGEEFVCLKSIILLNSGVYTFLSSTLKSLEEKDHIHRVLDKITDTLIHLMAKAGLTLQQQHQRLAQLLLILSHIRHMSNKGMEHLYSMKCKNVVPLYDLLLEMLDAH

C[C@]12CC[C@@H]3c4ccc(O)cc4C[C@@H](CCCCCCCCC[S+]([O-])CCCC(F)(F)C(F)(F)F)[C@H]3[C@@H]1CC[C@@H]2O (stereo partly shown) [ICI 182.780]
Log EC50 (human AR (full-length)): > -5.00 M | Log IC50 (human AR (full-length)): > -5.00 M | Log EC50 (human GR (full-length)): > -5.00 M | Log IC50 (human GR (full-length)): > -5.00 M

CCC(=O)[C@@]1(C)CC[C@H]2[C@@H]3CCC4=CC(=O)CCC4=C3CC[C@@]21C [Promegestone (R5020), promegestone]
EC50 (human AR (full-length)): > 10 µM | IC50 (human AR (full-length)): 0.0126 µM | EC50 (human GR (full-length); read-out: Log EC50 (converted)): > 10 µM | EC50 [1]: > 10 µM

C#C[C@]1(O)CC[C@H]2[C@@H]3CCC4=Cc5oncc5C[C@]4(C)[C@H]3CC[C@@]21C [Danazol, danazol]
EC50 (human GR (full-length); read-out: Log EC50 (converted)): > 10 µM | EC50 [1]: > 10 µM

C[C@H]1C[C@H]2[C@@H]3CCC4=CC(=O)C=C[C@]4(C)[C@@]3(Cl)[C@@H](O)C[C@]2(C)[C@@]1(O)C(=O)CO [Beclomethasone, beclomethasone]
Log EC50 ([1]; agonist mode, ERα^G420C-LBD/9xGal4UAS, 20 h, log10 of molar EC50, mean ± SEM): > -5.00 M | Log IC50 ([1]; antagonist mode, ERα^G420C-LBD/9xGal4UAS, in the presence of 20 nM E2, log10 of molar IC50, mean ± SEM): > -5.00 M

CC[C@@H]1Cc2cc(O)ccc2C2=C1c1ccc(O)cc1C[C@H]2CC (relative stereo) [R.R-THC, (R,R)-cis-diethyltetrahydro-2,8-chrysenediol]
Log EC50 (human AR (full-length)): > -5.00 M | Log IC50 (human AR (full-length)): -5.22 ± 1.26 M | Log EC50 (human GR (full-length)): > -5.00 M | Log IC50 (human GR (full-length)): > -5.00 M

O=c1c(-c2ccc(O)cc2)coc2cc(O)cc(O)c12 [Genistein, genistein]
EC50 (human AR (full-length)): > 10 µM | EC50 (human GR (full-length)): > 10 µM

C[C@]12C[C@H](O)[C@H]3[C@@H](CCC4=CC(=O)CC[C@@]43C)[C@@H]1CC[C@@H]2C(=O)CO [Corticosterone, corticosterone]
EC50 (human GR (full-length); read-out: Log EC50 (converted)): 0.0269 µM | EC50 [1]: > 10 µM

CCCc1c(-c2ccc(O)cc2)nn(-c2ccc(O)cc2)c1-c1ccc(O)cc1 [PPT, propyl pyrazole triol]
EC50 (human AR (full-length)): > 10 µM | EC50 (human GR (full-length); read-out: Log EC50 (converted)): > 10 µM | EC50 [1]: 0.0115 µM

C[C@]12CCC(=O)C=C1CC[C@@H]1[C@@H]2[C@@H](O)C[C@]2(C=O)[C@@H](C(=O)CO)CC[C@@H]12 [Aldosterone, aldosterone]
EC50 (human AR (full-length)): > 10 µM | EC50 (human GR (full-length); read-out: Log EC50 (converted)): 0.209 µM | EC50 [1]: > 10 µM

C[C@]12C=CC(=O)C=C1CC[C@H]1[C@@H]3C[C@@H](O)[C@](O)(C(=O)CO)[C@@]3(C)C[C@H](O)[C@@]12F [Triamcinolone, triamcinolone]
EC50 (human GR (full-length); read-out: Log EC50 (converted)): 0.0129 µM | EC50 [1]: > 10 µM
